The subject of one assay is NCI/ADR-RES. As to the kind of experiment: Compound was tested in vitro for cytotoxicity against MCF-7ADR, human breast cancer cells (taxol-resistant) at a drug concentration producing 50% inhibition of colony formation. It is filed as functional. As to conditions: read-out: ID50 (the source's name).
The species named for assay [1] is Mus musculus. As to the kind of experiment: The tumor growth value was reported as ratio of surviving days of mice treated with anticancer drug to surviving days of control mice. Format: functional.
For another assay, the system named is PC-3. As to the kind of experiment: Compound was tested in vitro for cytotoxicity against PC-3, human prostate cancer cells (taxol-sensitive) at a drug concentration producing 50% inhibition of colony formation. Format: functional. As to conditions: read-out: ID50 (the source's name).
For assay [2], the system named is Mus musculus. As to the kind of experiment: Compound was tested in vivo for antitumor activity, reported as maximum tolerated dose (MTD) in mice injected intraperitoneally with drug.
The test system of the next assay is HCT-116/VM46. As to the kind of experiment: Compound was tested in vitro for cytotoxicity against VM46 subline of HCT116 (taxol-resistant) at a drug concentration producing 50% inhibition of colony formation. To be noted: Homo sapiens, read-out: ID50 (the source's name).
The next assay has as its system HCT-116. In words: Compound was tested in vitro for cytotoxicity against HCT116, human colon cancer cells (taxol-sensitive) at a drug concentration producing 50% inhibition of colony formation. To be noted: read-out: ID50 (the source's name).
The test system of assay [3] is Mus musculus. In words: Compound was tested in vivo for antitumor activity, reported as non toxic dose (NTD) in mice injected intraperitoneally with drug.

SMILES strings stand for the structures. Some results are limits rather than exact numbers.

Take `CC[C@@]1(O)C(=O)OCc2c1cc1n(c2=O)Cc2cc3ccccc3nc2-1` [CAMPTOTHECIN]: the IC50 in the assay with NCI/ADR-RES is 3.9 nM; in the assay with PC-3, 3.8 nM; with HCT-116/VM46, 2.4 nM; with HCT-116 it was 2.8 nM. Moreover, the T/C in the assay listed under Mus musculus [1] came out at 183%. This compound gave an MTD in the assay on Mus musculus [2] of 12 mg/kg.

Consider `CC[C@@]1(OC(=O)CCCOc2ccc(Cl)cc2Cl)C(=O)OCc2c1cc1n(c2=O)Cc2cc3ccccc3nc2-1`, for which the IC50 with NCI/ADR-RES amounted to 89 nM; in the assay with HCT-116/VM46 it was 27 nM; in the assay on HCT-116 it was 39 nM. Also, in the assay filed under Mus musculus [1], the T/C was 250%. The NTD with Mus musculus [3] stood at 100 mg/kg.

For the compound `CC[C@@]1(OC(=O)COc2ccc(Br)cc2)C(=O)OCc2c1cc1n(c2=O)Cc2cc3ccccc3nc2-1`, the IC50 worked out at 5.5 nM in the assay with NCI/ADR-RES, 3.2 nM in the assay on PC-3, 1.9 nM in the assay with HCT-116/VM46 and 3 nM with HCT-116. Further, in the assay listed under Mus musculus [1], the T/C is reported as 300%. In addition, the NTD in the assay with Mus musculus [3] came out at 150 mg/kg.

Take `CC[C@@]1(OC(=O)CCOc2ccccc2)C(=O)OCc2c1cc1n(c2=O)Cc2cc3ccccc3nc2-1`: the IC50 in the assay with NCI/ADR-RES stood at 28 nM; with HCT-116/VM46 it was 7 nM; in the assay on HCT-116, 8 nM. For the same compound, in the assay listed under Mus musculus [1], the T/C amounted to 133%. In the assay on Mus musculus [3], this compound gave an NTD of 150 mg/kg.

For the compound `CC[C@@]1(OC(=O)COc2ccc3c(C)c(Cl)c(=O)oc3c2)C(=O)OCc2c1cc1n(c2=O)Cc2cc3ccccc3nc2-1`, the IC50 was 5.2 nM in the assay on NCI/ADR-RES, 3 nM with PC-3, 0.7 nM with HCT-116/VM46 and 3.5 nM with HCT-116. Moreover, in the assay listed under Mus musculus [1], the T/C came to 200%. In the assay with Mus musculus [3], the NTD was 75 mg/kg.

For `CCc1c2c(nc3ccc(OC(=O)N4CCC(N5CCCCC5)CC4)cc13)-c1cc3c(c(=O)n1C2)COC(=O)[C@]3(O)CC` [IRINOTECAN], the IC50 was greater than 500 nM with NCI/ADR-RES, 220 nM with HCT-116/VM46 and 540 nM in the assay with HCT-116. Also, the T/C in the assay listed under Mus musculus [1] was found to be 217%. The same compound had an MTD in the assay on Mus musculus [2] of 200 mg/kg.

Regarding `CC(=O)O[C@H]1C(=O)[C@@]2(C)[C@H]([C@H](OC(=O)c3ccccc3)[C@]3(O)C[C@H](OC(=O)[C@H](O)[C@@H](NC(=O)c4ccccc4)c4ccccc4)C(C)=C1C3(C)C)[C@]1(OC(C)=O)CO[C@@H]1C[C@@H]2O` [PACLITAXEL], the IC50 was greater than 10000 nM in the assay with NCI/ADR-RES, 4 nM with PC-3 and greater than 50 nM with HCT-116/VM46. The T/C in the assay listed under Mus musculus [1] worked out at 150%. For the same compound, the MTD in the assay with Mus musculus [2] turned out to be 40.6 mg/kg.

Regarding `CC[C@@]1(OC(=O)COc2ccc3c(c2)OCO3)C(=O)OCc2c1cc1n(c2=O)Cc2cc3ccccc3nc2-1`, the IC50 worked out at 5 nM in the assay with NCI/ADR-RES, 4.6 nM in the assay with PC-3, 2.4 nM in the assay on HCT-116/VM46 and 3.1 nM in the assay with HCT-116. For the same compound, in the assay listed under Mus musculus [1], the T/C is given as 200%. This compound showed an NTD in the assay on Mus musculus [3] of 45 mg/kg.

As for `CC[C@@]1(OC(=O)COc2ccc([N+](=O)[O-])cc2)C(=O)OCc2c1cc1n(c2=O)Cc2cc3ccccc3nc2-1`, the IC50 with NCI/ADR-RES was found to be 7 nM; in the assay with PC-3 it was 4.8 nM; in the assay with HCT-116/VM46, 3 nM; in the assay on HCT-116 it was 3.3 nM. In the assay listed under Mus musculus [1], the T/C was 250%. Further, in the assay on Mus musculus [3], the NTD is 100 mg/kg.

On to `CC[C@@]1(OC(=O)COc2ccc3ccccc3c2)C(=O)OCc2c1cc1n(c2=O)Cc2cc3ccccc3nc2-1`, for which the IC50 was determined as 4.1 nM in the assay on NCI/ADR-RES, 3.9 nM in the assay with PC-3, 1.8 nM with HCT-116/VM46 and 3 nM in the assay with HCT-116. Besides, in the assay filed under Mus musculus [1], the T/C is given as 117%. This compound also came in with an NTD with Mus musculus [3] of 150 mg/kg.

Take `CC[C@@]1(OC(=O)COc2ccc(Cl)cc2C)C(=O)OCc2c1cc1n(c2=O)Cc2cc3ccccc3nc2-1`: the IC50 was 4.3 nM with NCI/ADR-RES, 3.5 nM in the assay on PC-3, 0.9 nM in the assay with HCT-116/VM46 and 2.7 nM in the assay on HCT-116. Besides, the T/C in the assay filed under Mus musculus [1] is listed as 217%. The same compound gave an NTD in the assay with Mus musculus [3] of 150 mg/kg.

For `CC[C@@]1(OC(=O)CO[C@@H]2C[C@H](C)CC[C@H]2C(C)C)C(=O)OCc2c1cc1n(c2=O)Cc2cc3ccccc3nc2-1`, the IC50 with NCI/ADR-RES is 7.2 nM; in the assay with PC-3 it was 6.2 nM; in the assay on HCT-116/VM46, 2.5 nM; in the assay on HCT-116, 3.6 nM. For the same compound, in the assay listed under Mus musculus [1], the T/C is listed as 200%. Also, the NTD in the assay with Mus musculus [3] was determined as 100 mg/kg.

In the case of `CC[C@@]1(OC(=O)CCCCOc2ccc(F)cc2Br)C(=O)OCc2c1cc1n(c2=O)Cc2cc3ccccc3nc2-1`, the IC50 in the assay with NCI/ADR-RES was greater than 100 nM; with HCT-116/VM46, 94 nM; with HCT-116, greater than 100 nM. Besides, the NTD in the assay on Mus musculus [3] is 150 mg/kg.

Usually T/C stands for the ratio of treated to control. The term MTD denotes the highest dose tested that stayed within the study's limit of toxicity.
